Source: patent US9475809B2, “Substituted oxopyridine derivatives and use thereof as factor xia/plasma” (BAYER PHARMA AKTIENGESELLSCHAFT, priority 2013, dated 2016)
pIC50: −log10 of the molar value.

What follows are compounds tested against human factor XIa (Homo sapiens (Human), UniProt P03951) (assay: Measurement of FXIa inhibition (fluorogenic peptide substrate)). Conditions: factor XIa from Kordia 0.45 nM; substrate Boc-Glu(OBzl)-Ala-Arg-AMC; 30 min at 22° C.
Format: biochemical
Procedure: a.1) Measurement of FXIa Inhibition
The factor XIa inhibition of the inventive substances is determined using a biochemical test system which utilizes the reaction of a peptidic factor XIa substrate to determine the enzymatic activity of human factor XIa. Here, factor XIa cleaves from the peptic factor XIa substrate the C-terminal aminomethylcoumarin (AMC), the fluorescence of which is measured. The determinations are carried out in microtitre plates.
In each case 1 μl of the diluted substance solutions is placed into the wells of white microtitre plates from Greiner (384 wells). […] After 15 min of incubation, the enzyme reaction is started by addition of 20 μl of the factor XIa substrate Boc-Glu(OBzl)-Ala-Arg-AMC dissolved in assay buffer (10 μM in assay buffer) from Bachem, the mixture is incubated at room temperature (22° C.) for 30 min and fluorescence is then measured (excitation: 360 nm, emission: 460 nm). The measured emissions of the test batches with test substance are compared to those of control batches without test substance (only dimethyl sulphoxide instead of test substance in dimethyl sulphoxide), and IC50 values are calculated from the concentration/activity relationships.

Sequence of human factor XIa (P03951 388-625): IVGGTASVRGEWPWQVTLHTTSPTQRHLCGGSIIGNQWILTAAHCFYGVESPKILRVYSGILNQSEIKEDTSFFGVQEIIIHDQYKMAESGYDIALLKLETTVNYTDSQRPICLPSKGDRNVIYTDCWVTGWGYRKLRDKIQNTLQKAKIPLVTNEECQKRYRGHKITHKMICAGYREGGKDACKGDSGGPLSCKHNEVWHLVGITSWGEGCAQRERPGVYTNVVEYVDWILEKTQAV
Sequence of human factor XIa (P03951 19-387 partner): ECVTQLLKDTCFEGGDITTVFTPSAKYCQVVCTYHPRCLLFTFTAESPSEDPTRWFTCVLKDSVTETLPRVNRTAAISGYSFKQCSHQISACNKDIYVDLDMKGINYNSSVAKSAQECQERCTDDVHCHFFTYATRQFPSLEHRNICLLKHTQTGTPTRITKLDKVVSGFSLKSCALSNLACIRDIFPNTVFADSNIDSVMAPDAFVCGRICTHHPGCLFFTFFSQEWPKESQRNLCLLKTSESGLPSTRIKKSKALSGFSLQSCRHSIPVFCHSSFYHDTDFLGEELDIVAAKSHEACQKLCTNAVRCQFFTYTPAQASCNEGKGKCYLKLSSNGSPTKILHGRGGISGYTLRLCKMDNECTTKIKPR

SMILES | pIC50
CN1Cc2c(c(-c3cc(Cl)ccc3Cl)cc(=O)n2CC(=O)Nc2ccc(-c3nnn[nH]3)cc2)C1=O [Example 2, 2-[4-(2,5-Dichlorophenyl)-6-methyl-2,5-dioxo-2,5,6,7-tetrahydro-1H-pyrrolo[3,4-b]pyridin-1-yl]-N-[4-(1H-tetrazol-5-yl)phenyl]acetamide] | 6.47
O=C(Cn1c2c(c(-c3cc(Cl)ccc3Cl)cc1=O)C(=O)CC2)Nc1ccc(-c2nnn[nH]2)cc1 [Example 3, 2-[4-(2,5-Dichlorophenyl)-2,5-dioxo-2,5,6,7-tetrahydro-1H-cyclopenta[b]pyridin-1-yl]-N-[4-(1H-tetrazol-5-yl)phenyl]acetamide] | 6.64
O=C(Cn1c2c(c(-c3cc(Cl)ccc3Cl)cc1=O)C(=O)CC2)Nc1ccc(-c2cc(=O)[nH][nH]2)cc1 [Example 7, 2-[4-(2,5-Dichlorophenyl)-2,5-dioxo-2,5,6,7-tetrahydro-1H-cyclopenta[b]pyridin-1-yl]-N-[4-(5-oxo-2,5-dihydro-1H-pyrazol-3-yl)phenyl]acetamide] | 6.89
O=C(Cn1c2c(c(-c3cc(Cl)ccc3Br)cc1=O)C(=O)CC2)Nc1ccc(-c2nnn[nH]2)cc1 [Example 9, 2-[4-(2-Bromo-5-chlorophenyl)-2,5-dioxo-2,5,6,7-tetrahydro-1H-cyclopenta[b]pyridin-1-yl]-N-[4-(1H-tetrazol-5-yl)phenyl]acetamide] | 6.77
O=C(Cn1c2c(c(-c3cc(Cl)ccc3Br)cc1=O)C(=O)CC2)Nc1ccc(-c2noc(=O)[nH]2)cc1 [Example 10, 2-[4-(2-Bromo-5-chlorophenyl)-2,5-dioxo-2,5,6,7-tetrahydro-1H-cyclopenta[b]pyridin-1-yl]-N-[4-(5-oxo-4,5-dihydro-1,2,4-oxadiazol-3-yl)phenyl]acetamide] | 6.72
O=C(Cn1c2c(c(-c3cc(Cl)ccc3C(F)(F)F)cc1=O)C(=O)CC2)Nc1ccc(-c2cc(=O)[nH][nH]2)cc1 [Example 11, 2-{4-[5-Chloro-2-(trifluoromethyl)phenyl]-2,5-dioxo-2,5,6,7-tetrahydro-1H-cyclopenta[b]pyridin-1-yl}-N -[4-(5-oxo-2,5-dihydro-1H-pyrazol-3-yl)phenyl]acetamide] | 6.12
N#Cc1ccc(Cl)cc1-c1cc(=O)n(CC(=O)Nc2ccc(-c3noc(=O)[nH]3)cc2)c2c1C(=O)CC2 [Example 13, 2-[4-(5-Chloro-2-cyanophenyl)-2,5-dioxo-2,5,6,7-tetrahydro-1H-cyclopenta[b]pyridin-1-yl]-N-[4-(5-oxo-4,5-dihydro-1,2,4-oxadiazol-3-yl)phenyl]acetamide] | 7.47
N#Cc1ccc(Cl)cc1-c1cc(=O)n(CC(=O)Nc2ccc(-c3noc(=O)[nH]3)cc2)c2c1C(=O)CCC2 [Example 16, 2-[4-(5-Chloro-2-cyanophenyl)-2,5-dioxo-5,6,7,8-tetrahydroquinolin-1(2H)-yl]-N-[4-(5-oxo-4,5-dihydro-1,2,4-oxadiazol-3-yl)phenyl]acetamide] | 7.11

The remaining compounds from weak to strong by pIC50, led by results:

pIC50 | SMILES
6.26 | O=C(Cn1c2c(c(-c3cc(Cl)ccc3Cl)cc1=O)C(=O)CC2)Nc1ccc(-c2nc(C(F)(F)F)n[nH]2)cc1 [Example 6, 2-[4-(2,5-Dichlorophenyl)-2,5-dioxo-2,5,6,7-tetrahydro-1H-cyclopenta[b]pyridin-1-yl]-N-{4-[3-(trifluoromethyl)-1H-1,2,4-triazol-5-yl]phenyl}acetamide]
6.33 | O=C(Cn1c2c(c(-c3cc(Cl)ccc3Cl)cc1=O)C(=O)CC2)Nc1ccc(-c2cnc[nH]2)cc1 [Example 8, 2-[4-(2,5-Dichlorophenyl)-2,5-dioxo-2,5,6,7-tetrahydro-1H-cyclopenta[b]pyridin-1-yl]-N-[4-(1H-imidazol-5-yl)phenyl]acetamide]
6.38 | O=C(Cn1c2c(c(-c3cc(Cl)ccc3Cl)cc1=O)C(=O)CC2)Nc1ccc(C(=O)O)cc1 [Example 4, 4-({[4-(2,5-Dichlorophenyl)-2,5-dioxo-2,5,6,7-tetrahydro-1H-cyclopenta[b]pyridin-1-yl]acetyl}amino)benzoic acid]
6.85 | N#Cc1ccc(Cl)cc1-c1cc(=O)n(CC(=O)Nc2ccc(-c3cc(=O)[nH][nH]3)cc2)c2c1C(=O)CC2 [Example 14, 2-[4-(5-Chloro-2-cyanophenyl)-2,5-dioxo-2,5,6,7-tetrahydro-1H-cyclopenta[b]pyridin-1-yl]-N-[4-(5-oxo-2,5-dihydro-1H-pyrazol-3-yl)phenyl]acetamide]
